# In ChEMBL document CHEMBL5244219, “Recent developments of quinolone-based derivatives and their activities against Escherichia coli” (Eur J Med Chem, 2018):
# System: Escherichia coli
# Assay: Antibacterial activity against Escherichia coli assessed as bacterial growth inhibition
# Type: functional
# Settings: not given
row,Compound,MIC
1,COc1cc(OC)cc(-c2nn(CN3CCN(c4cc5c(cc4F)c(=O)c(C(=O)O)cn5[C@@H]4C[C@@H]4F)CC3)c(=S)n2Cc2ccccc2)c1,≤ 0.04 µg/mL
2,COc1cc(-c2nn(CN3CCN(c4cc5c(cc4F)c(=O)c(C(=O)O)cn5[C@@H]4C[C@@H]4F)CC3)c(=S)n2-c2ccccc2)cc(OC)c1OC,≤ 0.04 µg/mL
3,CC1Cn2cc(C(=O)O)c(=O)c3cc(F)c(N4CCCC4)c(c32)S1 (stereo not drawn),0.12 µg/mL
4,O=C(O)c1cn([C@@H]2C[C@@H]2F)c2cc(N3CCN(Cn4nc(-c5ccc6ccccc6c5)n(Cc5ccccc5)c4=S)CC3)c(F)cc2c1=O,≤ 0.04 µg/mL
5,CC(=O)c1cc2ccccc2n(/N=C/c2ccc(C)cc2)c1=O,1.6 µg/mL
6,CCNCC1CCN(c2c(F)cc3c(=O)c(C(=O)O)cn4c3c2SC(C)C4)C1 (stereo not drawn),0.12 µg/mL
7,COc1cc(/C=N/n2c(=O)c(C(C)=O)cc3cc(Cl)ccc32)cc(OC)c1OC,1.6 µg/mL
8,CC1Cn2cc(C(=O)O)c(=O)c3cc(F)c(N4CCN(C)CC4)c(c32)S1 (stereo not drawn),0.12 µg/mL
9,CC(=O)c1cc2ccccc2n(/N=C/c2cccc([N+](=O)[O-])c2)c1=O,1.6 µg/mL
10,COc1ccc(-c2nn(CN3CCN(c4cc5c(cc4F)c(=O)c(C(=O)O)cn5[C@@H]4C[C@@H]4F)CC3)c(=S)n2-c2ccccc2)cc1OC,≤ 0.04 µg/mL
11,CC(=O)c1cc2ccccc2n(/N=C/c2ccccc2[N+](=O)[O-])c1=O,1.6 µg/mL
12,O=C(O)c1cn2c3c(c(Cl)c(F)cc3c1=O)SC(c1cccc(F)c1)C2 (stereo not drawn),0.12 µg/mL
13,O=C(O)c1cn2c3c(c(N4CCNCC4)c(F)cc3c1=O)SC(c1ccc(F)cc1)C2 (stereo not drawn),0.12 µg/mL
14,CC(=O)c1cc2cc([N+](=O)[O-])ccc2n(/N=C/c2cccc([N+](=O)[O-])c2)c1=O,1.6 µg/mL
15,COc1cc(OC)cc(-c2nn(CN3CCN(c4cc5c(cc4F)c(=O)c(C(=O)O)cn5[C@@H]4C[C@@H]4F)CC3)c(=S)n2-c2ccccc2)c1,≤ 0.04 µg/mL
16,CC1Cn2cc(C(=O)O)c(=O)c3cc(F)c(N4CCCNCC4)c(c32)S1 (stereo not drawn),0.12 µg/mL
17,CC(=O)c1cc2cc(Cl)ccc2n(/N=C/c2ccc(O)cc2)c1=O,1.6 µg/mL
18,CC1Cn2cc(C(=O)O)c(=O)c3cc(F)c(N4CCN(c5ccccn5)CC4)c(c32)S1 (stereo not drawn),0.12 µg/mL
19,CC1Cn2cc(C(=O)O)c(=O)c3cc(F)c(N4CCN(C=O)CC4)c(c32)S1 (stereo not drawn),0.12 µg/mL
20,CC1Cn2cc(C(=O)O)c(=O)c3cc(F)c(N4C(C)CNCC4C)c(c32)S1 (stereo not drawn),0.12 µg/mL
21,CN1CCN(c2c(F)cc3c(=O)c(C(=O)O)cn4c3c2SC(c2ccc(F)cc2)C4)CC1 (stereo not drawn),0.12 µg/mL

row,Compound,MIC
1,CC1Cn2cc(C(=O)O)c(=O)c3cc(F)c(N4CCN(Cc5cccc(F)c5)CC4)c(c32)S1 (stereo not drawn),0.12 µg/mL
2,O=C(O)c1cn2c3c(c(Cl)c(F)cc3c1=O)SC(c1ccccc1F)C2 (stereo not drawn),0.12 µg/mL
3,CC1Cn2cc(C(=O)O)c(=O)c3cc(F)c(N4CCN(c5ccc(F)cc5)CC4)c(c32)S1 (stereo not drawn),0.12 µg/mL
4,CN1CCN(c2c(F)cc3c(=O)c(C(=O)O)cn4c3c2SCC4)CC1 [RUFLOXACIN],0.25 µg/mL
5,CC(=O)c1cc2ccccc2n(/N=C/c2ccc(O)cc2)c1=O,1.6 µg/mL
6,COc1cc(/C=N/n2c(=O)c(C(C)=O)cc3cc([N+](=O)[O-])ccc32)cc(OC)c1OC,1.6 µg/mL
7,O=C(O)c1cn([C@@H]2C[C@@H]2F)c2cc(N3CCN(Cn4nc(-c5ccccc5O)n(-c5ccccc5)c4=S)CC3)c(F)cc2c1=O,≤ 0.04 µg/mL
8,CC1Cn2cc(C(=O)O)c(=O)c3cc(F)c(N4CCN(Cc5ccc(F)cc5F)CC4)c(c32)S1 (stereo not drawn),0.12 µg/mL
9,CC1(C)S[C@@H]2[C@H](NC(=O)[C@H](N)c3ccc(O)cc3)C(=O)N2[C@H]1C(=O)O [AMOXICILLIN],2 µg/mL
10,CC(=O)c1cc2cc(Cl)ccc2n(/N=C/c2ccccc2[N+](=O)[O-])c1=O,1.6 µg/mL
11,CC(=O)c1cc2cc(Cl)ccc2n(/N=C/c2ccc(C)cc2)c1=O,1.6 µg/mL
12,C[C@H]1COc2c(N3CCC4(CCN(C)C4)C3)c(F)cc3c(=O)c(C(=O)O)cn1c23 (stereo partly drawn),0.025 µg/mL
13,CC1Cn2cc(C(=O)O)c(=O)c3cc(F)c(N4CCN(Cc5ccccc5C(F)(F)F)CC4)c(c32)S1 (stereo not drawn),0.12 µg/mL
14,CC1Cn2cc(C(=O)O)c(=O)c3cc(F)c(Cl)c(c32)S1 (stereo not drawn),0.12 µg/mL
15,CC1Cn2cc(C(=O)O)c(=O)c3cc(F)c(-n4ccnc4)c(c32)S1 (stereo not drawn),0.12 µg/mL
16,O=C(O)c1cn([C@@H]2C[C@@H]2F)c2cc(N3CCN(Cn4nc(-c5ccncc5)n(-c5ccccc5)c4=S)CC3)c(F)cc2c1=O,≤ 0.04 µg/mL
17,CC1Cn2cc(C(=O)O)c(=O)c3cc(F)c(N4CCN(S(=O)(=O)c5ccc(F)cc5)CC4)c(c32)S1 (stereo not drawn),0.12 µg/mL
18,CC1Cn2cc(C(=O)O)c(=O)c3cc(F)c(N4CCNCC4)c(c32)S1 (stereo not drawn),0.25 µg/mL
19,O=C(O)c1cn2c3c(c(Cl)c(F)cc3c1=O)SC(c1ccc(F)cc1)C2 (stereo not drawn),0.12 µg/mL
20,CC(=O)c1cc2ccccc2n(/N=C/c2ccccc2Cl)c1=O,1.6 µg/mL

# System: Escherichia coli
# Assay: Antibacterial activity against Escherichia coli assessed as bacterial growth inhibition measured after 18 to 24 hrs by broth microdilution method
# Type: functional
# Settings: time 18-24 hrs
row,Compound,MIC
1,COc1c(N2CCC(N)C2)c(F)cc2c(=O)c(C(=O)O)cn(-c3ccc(O)cc3)c12 (stereo not drawn),< 0.05 µg/mL
2,CC1CNCCN1c1nc2c(cc1F)c(=O)c(C(=O)O)cn2-c1ccc(O)cc1 (stereo not drawn),< 0.05 µg/mL
3,C[C@H](N)[C@H]1CCN(c2nc3c(cc2F)c(=O)c(C(=O)O)cn3-c2ccc(O)cc2)C1,< 0.05 µg/mL
4,N[C@H]1CN(c2nc3c(cc2F)c(=O)c(C(=O)O)cn3-c2ccc(O)cc2)CC12CC2,< 0.05 µg/mL
5,NC1CCN(c2nc3c(cc2F)c(=O)c(C(=O)O)cn3-c2ccc(O)cc2)C1 (stereo not drawn),< 0.05 µg/mL
6,COc1c(N2C[C@@H]3[C@@H](N)[C@@H]3C2)c(F)cc2c(=O)c(C(=O)O)cn(-c3ccc(O)cc3)c12,< 0.05 µg/mL
7,C[C@H](N)[C@@H]1CCN(c2cc3c(cc2F)c(=O)c(C(=O)O)cn3-c2ccc(O)cc2)C1,< 0.05 µg/mL
8,C[C@@H](N)[C@H]1CCN(c2nc3c(cc2F)c(=O)c(C(=O)O)cn3-c2ccc(O)cc2)C1,< 0.05 µg/mL
9,N[C@@H]1CCC[C@@H]2CN(c3cc4c(cc3F)c(=O)c(C(=O)O)cn4-c3ccc(O)cc3)C[C@@H]21,< 0.05 µg/mL
10,COc1c(N2C[C@@H](N)C3(CC3)C2)c(F)cc2c(=O)c(C(=O)O)cn(-c3ccc(O)cc3)c12,< 0.05 µg/mL
11,C[C@H](N)[C@@H]1CCN(c2nc3c(cc2F)c(=O)c(C(=O)O)cn3-c2ccc(O)cc2)C1,< 0.05 µg/mL
12,NC1CCN(c2cc3c(cc2F)c(=O)c(C(=O)O)cn3-c2ccc(O)cc2)C1 (stereo not drawn),< 0.05 µg/mL
13,COc1c(N2C[C@@H](N)[C@@H](C)C2)c(F)cc2c(=O)c(C(=O)O)cn(-c3ccc(O)cc3)c12,< 0.05 µg/mL
14,C[C@@H](N)[C@H]1CCN(c2cc3c(cc2F)c(=O)c(C(=O)O)cn3-c2ccc(O)cc2)C1,< 0.05 µg/mL
15,C[C@@H]1CN(c2cc3c(cc2F)c(=O)c(C(=O)O)cn3-c2ccc(O)cc2)C[C@H]1N,< 0.05 µg/mL
16,C[C@H]1CN(c2nc3c(cc2F)c(=O)c(C(=O)O)cn3-c2ccc(O)cc2)C[C@H]1N,< 0.05 µg/mL
17,N[C@@H]1CCC[C@@H]2CN(c3nc4c(cc3F)c(=O)c(C(=O)O)cn4-c3ccc(O)cc3)C[C@@H]21,< 0.05 µg/mL
18,C[C@H]1CN(c2cc3c(cc2F)c(=O)c(C(=O)O)cn3-c2ccc(O)cc2)C[C@H]1N,< 0.05 µg/mL
19,COc1c(N2CC3CC2CN3)c(F)cc2c(=O)c(C(=O)O)cn(-c3ccc(O)cc3)c12 (stereo not drawn),< 0.05 µg/mL
20,N[C@H]1CN(c2cc3c(cc2F)c(=O)c(C(=O)O)cn3-c2ccc(O)cc2)CC12CC2,< 0.05 µg/mL
21,O=C(O)c1cn(-c2ccc(O)cc2)c2nc(N3CC4CC3CN4)c(F)cc2c1=O (stereo not drawn),< 0.05 µg/mL
22,C[C@@H]1C[C@H](N)CN1c1cc2c(cc1F)c(=O)c(C(=O)O)cn2-c1ccc(O)cc1,< 0.05 µg/mL
23,COc1c(N2CCNCC2)c(F)cc2c(=O)c(C(=O)O)cn(-c3ccc(O)cc3)c12,< 0.05 µg/mL
24,C[C@@H]1CN(c2cc3c(cc2F)c(=O)c(C(=O)O)cn3-c2ccc(O)cc2)C[C@H](C)N1,< 0.05 µg/mL

row,Compound,MIC
1,CN1CCC2CN(c3nc4c(cc3F)c(=O)c(C(=O)O)cn4-c3ccc(O)cc3)CC21 (stereo not drawn),< 0.05 µg/mL
2,COc1c(N2CCC(CN)C2)c(F)cc2c(=O)c(C(=O)O)cn(-c3ccc(O)cc3)c12 (stereo not drawn),< 0.05 µg/mL
3,N[C@@H]1CN(c2cc3c(cc2F)c(=O)c(C(=O)O)cn3-c2ccc(O)cc2)CC12CC2,< 0.05 µg/mL
4,NCC1CCN(c2cc3c(cc2F)c(=O)c(C(=O)O)cn3-c2ccc(O)cc2)C1 (stereo not drawn),< 0.05 µg/mL
5,COc1c(N2C[C@@H](C)N[C@@H](C)C2)c(F)cc2c(=O)c(C(=O)O)cn(-c3ccc(O)cc3)c12,< 0.05 µg/mL
6,O=C(O)c1cn(-c2ccc(O)cc2)c2cc(N3CCNCC3)c(F)cc2c1=O,< 0.05 µg/mL
7,N[C@@H]1CN(c2nc3c(cc2F)c(=O)c(C(=O)O)cn3-c2ccc(O)cc2)CC12CC2,< 0.05 µg/mL
8,O=C(O)c1cn(-c2ccc(O)cc2)c2nc(N3CCNCC3)c(F)cc2c1=O,< 0.05 µg/mL
9,NCC1CCN(c2nc3c(cc2F)c(=O)c(C(=O)O)cn3-c2ccc(O)cc2)C1 (stereo not drawn),< 0.05 µg/mL
10,COc1c(N2CCN(C)CC2)c(F)cc2c(=O)c(C(=O)O)cn(-c3ccc(O)cc3)c12,< 0.05 µg/mL
11,O=C(O)c1cn(-c2ccc(O)cc2)c2nc(N3CC4CCCNC4C3)c(F)cc2c1=O (stereo not drawn),< 0.05 µg/mL
12,COc1c(N2C[C@@H](C)[C@H](N)C2)c(F)cc2c(=O)c(C(=O)O)cn(-c3ccc(O)cc3)c12,< 0.05 µg/mL
13,N[C@@H]1[C@H]2CN(c3cc4c(cc3F)c(=O)c(C(=O)O)cn4-c3ccc(O)cc3)C[C@@H]12,< 0.05 µg/mL
14,C[C@@H]1CN(c2nc3c(cc2F)c(=O)c(C(=O)O)cn3-c2ccc(O)cc2)C[C@H](C)N1,< 0.05 µg/mL
15,COc1c(N2CC3CCN(C)C3C2)c(F)cc2c(=O)c(C(=O)O)cn(-c3ccc(O)cc3)c12 (stereo not drawn),< 0.05 µg/mL
16,CN1CCN(c2nc3c(cc2F)c(=O)c(C(=O)O)cn3-c2ccc(O)cc2)CC1,< 0.05 µg/mL
17,C[C@@H]1CN(c2nc3c(cc2F)c(=O)c(C(=O)O)cn3-c2ccc(O)cc2)C[C@H]1N,< 0.05 µg/mL
18,O=C(O)c1cn(-c2ccc(O)cc2)c2cc(N3CC4CCCNC4C3)c(F)cc2c1=O (stereo not drawn),< 0.05 µg/mL
19,N[C@@H]1[C@H]2CN(c3nc4c(cc3F)c(=O)c(C(=O)O)cn4-c3ccc(O)cc3)C[C@@H]12,< 0.05 µg/mL
20,O=C(O)c1cn(-c2ccc(O)cc2)c2cc(N3CC4CC3CN4)c(F)cc2c1=O (stereo not drawn),< 0.05 µg/mL
21,COc1c(N2CC3CCCNC3C2)c(F)cc2c(=O)c(C(=O)O)cn(-c3ccc(O)cc3)c12 (stereo not drawn),< 0.05 µg/mL
22,CN1CCC2CN(c3cc4c(cc3F)c(=O)c(C(=O)O)cn4-c3ccc(O)cc3)CC21 (stereo not drawn),< 0.05 µg/mL
23,C[C@H](N)[C@H]1CCN(c2cc3c(cc2F)c(=O)c(C(=O)O)cn3-c2ccc(O)cc2)C1,< 0.05 µg/mL
